Results: PubChem BioAssay (NCI)
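These data come from cells grown in 96-well plates and exposed to compound for 48 hours at five concentrations. TGI denotes the concentration required for complete inhibition of growth.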

What was measured:
Assay in all cases: inhibition of tumour cell growth, NCI panel, 48 h
786-0 renal = system: 786-0 renal
A549 NSCLC = system: A549 NSCLC
ACHN renal = system: ACHN renal
BT-549 breast = system: BT-549 breast
CAKI-1 renal = system: CAKI-1 renal
CCRF-CEM leukemia = system: CCRF-CEM leukemia
COLO 205 colon = system: COLO 205 colon
DU-145 prostate = system: DU-145 prostate
EKVX NSCLC = system: EKVX NSCLC
HCC-2998 colon = system: HCC-2998 colon
HCT-116 colon = system: HCT-116 colon
HCT-15 colon = system: HCT-15 colon
HL-60(TB) leukemia = system: HL-60(TB) leukemia
HOP-62 NSCLC = system: HOP-62 NSCLC
HOP-92 NSCLC = system: HOP-92 NSCLC
HS 578T breast = system: HS 578T breast
HT29 colon = system: HT29 colon
IGROV1 ovarian = system: IGROV1 ovarian
K-562 leukemia = system: K-562 leukemia
KM12 colon = system: KM12 colon
LOX IMVI melanoma = system: LOX IMVI melanoma
M14 melanoma = system: M14 melanoma
MALME-3M melanoma = system: MALME-3M melanoma
MCF7 breast = system: MCF7 breast
MDA-MB-435 = system: MDA-MB-435
MDA-N = system: MDA-N
MOLT-4 leukemia = system: MOLT-4 leukemia
NCI-H226 lung = system: NCI-H226 lung
NCI-H23 lung = system: NCI-H23 lung
NCI-H460 lung = system: NCI-H460 lung
NCI-H522 lung = system: NCI-H522 lung
NCI/ADR-RES ovarian = system: NCI/ADR-RES ovarian
OVCAR-3 ovarian = system: OVCAR-3 ovarian
OVCAR-4 ovarian = system: OVCAR-4 ovarian
OVCAR-5 ovarian = system: OVCAR-5 ovarian
OVCAR-8 ovarian = system: OVCAR-8 ovarian
PC-3 prostate = system: PC-3 prostate
RPMI-8226 leukemia = system: RPMI-8226 leukemia
RXF 393 renal = system: RXF 393 renal
SF-268 CNS = system: SF-268 CNS
SF-295 CNS = system: SF-295 CNS
SF-539 CNS = system: SF-539 CNS
SK-MEL-2 melanoma = system: SK-MEL-2 melanoma
SK-MEL-5 melanoma = system: SK-MEL-5 melanoma
SK-OV-3 ovarian = system: SK-OV-3 ovarian
SN12C renal = system: SN12C renal
SNB-19 CNS = system: SNB-19 CNS
SR leukemia = system: SR leukemia
SW-620 colon = system: SW-620 colon
T-47D breast = system: T-47D breast
TK-10 renal = system: TK-10 renal
U251 CNS = system: U251 CNS
UACC-257 melanoma = system: UACC-257 melanoma
UACC-62 melanoma = system: UACC-62 melanoma
UO-31 renal = system: UO-31 renal
A498 renal = system: A498 renal
MDA-MB-231 breast = system: MDA-MB-231 breast
SK-MEL-28 melanoma = system: SK-MEL-28 melanoma
SNB-75 CNS = system: SNB-75 CNS

## Cc1ccc(O)c(C2=CC(c3cccc(Cl)c3)SC(N)=N2)c1 (configuration not stated)
786-0 renal
  TGI: > 100 µM
A549 NSCLC
  TGI: 62.9 µM
ACHN renal
  TGI: 54.4 µM
BT-549 breast
  TGI: 85 µM
CAKI-1 renal
  TGI: > 100 µM
CCRF-CEM leukemia
  TGI: 83.1 µM
COLO 205 colon
  TGI: 39.8 µM
DU-145 prostate
  TGI: > 100 µM
EKVX NSCLC
  TGI: 61.8 µM
HCC-2998 colon
  TGI: 33.4 µM
HCT-116 colon
  TGI: 39.7 µM
HCT-15 colon
  TGI: 38.2 µM
HL-60(TB) leukemia
  TGI: 61.6 µM
HOP-62 NSCLC
  TGI: 64.1 µM
HOP-92 NSCLC
  TGI: 42.9 µM
HS 578T breast
  TGI: 47.9 µM
HT29 colon
  TGI: 46.3 µM
IGROV1 ovarian
  TGI: 46.5 µM
K-562 leukemia
  TGI: 55.5 µM
KM12 colon
  TGI: 89.6 µM
LOX IMVI melanoma
  TGI: 34.7 µM
M14 melanoma
  TGI: 68.3 µM
MALME-3M melanoma
  TGI: 62.5 µM
MCF7 breast
  TGI: > 100 µM
MDA-MB-435
  TGI: 37.1 µM
MDA-N
  TGI: 39.7 µM
MOLT-4 leukemia
  TGI: 61.4 µM
NCI-H226 lung
  TGI: 38.9 µM
NCI-H23 lung
  TGI: 80.1 µM
NCI-H460 lung
  TGI: 64 µM
NCI-H522 lung
  TGI: 34 µM
NCI/ADR-RES ovarian
  TGI: > 100 µM
OVCAR-3 ovarian
  TGI: 90.1 µM
OVCAR-4 ovarian
  TGI: 23.6 µM
OVCAR-5 ovarian
  TGI: 73.5 µM
OVCAR-8 ovarian
  TGI: > 100 µM
PC-3 prostate
  TGI: 73.6 µM
RPMI-8226 leukemia
  TGI: 42.6 µM
RXF 393 renal
  TGI: 63.6 µM
SF-268 CNS
  TGI: > 100 µM
SF-295 CNS
  TGI: 36.9 µM
SF-539 CNS
  TGI: 53.1 µM
SK-MEL-2 melanoma
  TGI: 38.2 µM
SK-MEL-5 melanoma
  TGI: 30.1 µM
SK-OV-3 ovarian
  TGI: 80 µM
SN12C renal
  TGI: 34.7 µM
SNB-19 CNS
  TGI: 37.7 µM
SR leukemia
  TGI: 46.5 µM
SW-620 colon
  TGI: 65.9 µM
T-47D breast
  TGI: 99.2 µM
TK-10 renal
  TGI: 51.7 µM
U251 CNS
  TGI: 34.4 µM
UACC-257 melanoma
  TGI: 46.8 µM
UACC-62 melanoma
  TGI: 28.8 µM
UO-31 renal
  TGI: 69.1 µM

## NCCCC[C@H](N)C(=O)Nc1ccc(-c2nc3ccccc3s2)cc1
786-0 renal
  TGI: 32.9 µM
A498 renal
  TGI: 72.9 µM
A549 NSCLC
  TGI: > 100 µM
ACHN renal
  TGI: 55 µM
BT-549 breast
  TGI: 84.9 µM
CAKI-1 renal
  TGI: > 100 µM
CCRF-CEM leukemia
  TGI: 23.6 µM
COLO 205 colon
  TGI: 33.6 µM
DU-145 prostate
  TGI: 49.1 µM
EKVX NSCLC
  TGI: 23.9 µM
HCC-2998 colon
  TGI: 81.5 µM
HCT-116 colon
  TGI: 33 µM
HCT-15 colon
  TGI: 33.7 µM
HOP-62 NSCLC
  TGI: 62 µM
HOP-92 NSCLC
  TGI: > 100 µM
HS 578T breast
  TGI: 47.6 µM
HT29 colon
  TGI: 30.1 µM
IGROV1 ovarian
  TGI: 31.5 µM
K-562 leukemia
  TGI: 36.3 µM
KM12 colon
  TGI: 34.9 µM
LOX IMVI melanoma
  TGI: 72 µM
M14 melanoma
  TGI: 25.1 µM
MALME-3M melanoma
  TGI: 34.9 µM
MDA-MB-231 breast
  TGI: 37.6 µM
MDA-MB-435
  TGI: 35.1 µM
MDA-N
  TGI: 29 µM
MOLT-4 leukemia
  TGI: 31.2 µM
NCI-H226 lung
  TGI: 71.1 µM
NCI-H23 lung
  TGI: 67.7 µM
NCI-H460 lung
  TGI: 34.9 µM
NCI-H522 lung
  TGI: 33.9 µM
NCI/ADR-RES ovarian
  TGI: 59.7 µM
OVCAR-3 ovarian
  TGI: 37.2 µM
OVCAR-4 ovarian
  TGI: > 100 µM
OVCAR-5 ovarian
  TGI: 33.2 µM
OVCAR-8 ovarian
  TGI: 40.1 µM
PC-3 prostate
  TGI: > 100 µM
RXF 393 renal
  TGI: > 100 µM
SF-268 CNS
  TGI: 55.6 µM
SF-295 CNS
  TGI: 31 µM
SK-MEL-2 melanoma
  TGI: > 100 µM
SK-MEL-28 melanoma
  TGI: 33.8 µM
SK-MEL-5 melanoma
  TGI: 94.4 µM
SK-OV-3 ovarian
  TGI: 39.2 µM
SN12C renal
  TGI: 74.3 µM
SNB-19 CNS
  TGI: 32.3 µM
SNB-75 CNS
  TGI: 35.2 µM
SR leukemia
  TGI: 36.2 µM
SW-620 colon
  TGI: 30.6 µM
T-47D breast
  TGI: > 100 µM
TK-10 renal
  TGI: > 100 µM
U251 CNS
  TGI: 29.4 µM
UACC-257 melanoma
  TGI: > 100 µM
UACC-62 melanoma
  TGI: 59.7 µM
UO-31 renal
  TGI: 26 µM

## CC(C)C(=O)Nc1cc(C(F)(F)F)ccc1[N+](=O)[O-]
786-0 renal
  TGI: > 100 µM
A498 renal
  TGI: > 100 µM
A549 NSCLC
  TGI: > 100 µM
ACHN renal
  TGI: > 100 µM
BT-549 breast
  TGI: > 100 µM
CAKI-1 renal
  TGI: > 100 µM
CCRF-CEM leukemia
  TGI: > 100 µM
COLO 205 colon
  TGI: > 100 µM
DU-145 prostate
  TGI: > 100 µM
EKVX NSCLC
  TGI: > 100 µM
HCC-2998 colon
  TGI: > 100 µM
HCT-116 colon
  TGI: > 100 µM
HCT-15 colon
  TGI: > 100 µM
HL-60(TB) leukemia
  TGI: > 100 µM
HOP-62 NSCLC
  TGI: > 100 µM
HOP-92 NSCLC
  TGI: > 100 µM
HS 578T breast
  TGI: > 100 µM
HT29 colon
  TGI: > 100 µM
IGROV1 ovarian
  TGI: > 100 µM
K-562 leukemia
  TGI: > 100 µM
KM12 colon
  TGI: > 100 µM
LOX IMVI melanoma
  TGI: > 100 µM
M14 melanoma
  TGI: > 100 µM
MALME-3M melanoma
  TGI: > 100 µM
MCF7 breast
  TGI: > 100 µM
MDA-MB-231 breast
  TGI: > 100 µM
MDA-MB-435
  TGI: > 100 µM
MDA-N
  TGI: > 100 µM
MOLT-4 leukemia
  TGI: > 100 µM
NCI-H226 lung
  TGI: > 100 µM
NCI-H23 lung
  TGI: > 100 µM
NCI-H460 lung
  TGI: > 100 µM
NCI-H522 lung
  TGI: > 100 µM
NCI/ADR-RES ovarian
  TGI: > 100 µM
OVCAR-3 ovarian
  TGI: > 100 µM
OVCAR-4 ovarian
  TGI: > 100 µM
OVCAR-5 ovarian
  TGI: > 100 µM
OVCAR-8 ovarian
  TGI: > 100 µM
PC-3 prostate
  TGI: > 100 µM
RPMI-8226 leukemia
  TGI: > 100 µM
RXF 393 renal
  TGI: > 100 µM
SF-268 CNS
  TGI: > 100 µM
SF-295 CNS
  TGI: > 100 µM
SF-539 CNS
  TGI: > 100 µM
SK-MEL-2 melanoma
  TGI: > 100 µM
SK-MEL-28 melanoma
  TGI: > 100 µM
SK-MEL-5 melanoma
  TGI: > 100 µM
SK-OV-3 ovarian
  TGI: > 100 µM
SN12C renal
  TGI: > 100 µM
SNB-19 CNS
  TGI: > 100 µM
SW-620 colon
  TGI: > 100 µM
T-47D breast
  TGI: > 100 µM
TK-10 renal
  TGI: > 100 µM
U251 CNS
  TGI: > 100 µM
UACC-257 melanoma
  TGI: > 100 µM
UACC-62 melanoma
  TGI: > 100 µM
UO-31 renal
  TGI: > 100 µM
